In patent US20070037887A1, “Blockade of mtor to prevent a hormonal adaptive response” (University of Virginia Patent Foundation, priority 2003, published 2007):

Experiments:
mTOR-raptor complex = target: T1, mTOR-raptor complex (Rattus norvegicus, UniProt P42346+Q8N122); experiment: Coimmunoprecipitation of raptor with mTOR from 293T cells incubated with compound; assay type: cell-based; settings: overexpressed in 293T cells, increasing concentrations, 1 h
T1 construct: rows headed: amount of HA-raptor that coimmunoprecipitated with AU1-mTOR; other: extracts incubated with increasing concentrations; amount of HA-raptor that coimmunoprecipitated with AU1-mTOR; other: overexpressed in 293T cells, increasing concentrati; half maximal effect on raptor dissociation from mTOR; other: AU1-mTOR and HA-raptor overexpressed in 293T cells, 1 h; association of AU1-mTOR and HA-rapto
Description: FIG. 11A & 11B represent data showing FTS inhibits PHAS-I phosphorylation and promotes dissociation of the mTOR-raptor complex in 293T cells. 293T cells were transfected with pcDNA3AU1-mTOR, pcDNA33HARaptor, pcDNA33HA-mLST8, and pCMV-Tag3APHAS-I (FIG. 11A). After 18 h the cells were incubated for 1 h with increasing concentrations of FTS before extracts were prepared. A sample of each extract was subjected to SDS-PAGE and immunoblotted to detect PHAS-I or PThr^36/45. AU1-mTOR was also immunoprecipitated from each extract, and immune complexes were subjected to SDSPAGE and immunoblotted with mTAb2, to detect mTOR, and with anti-HA antibodies, to detect HA-mLST8 and HA-raptor. Nontransfected 293T cells were incubated with increasing concentrations of FTS for 1 h before extracts were prepared. mTOR was immunoprecipitated with mTAb1, and samples were subjected to SDS-PAGE.
(§1) FIGS. 12A & 12B represent data showing the effects of incubating cells with increasing concentrations of FTS and GTS on mTOR activity and mTOR association with raptor and mLST8. AU1-mTOR, HA-raptor, and HAmLST8 were overexpressed in 293T cells. The cells were then incubated for 1 h with increasing concentrations of FTS (●, ▴, ▪) or GTS (∘, Δ, □) before extracts were prepared. Immunoprecipitations were then conducted with anti-AU1 antibodies. mTOR kinase activity (●, ∘) was determined by measuring ^32P incorporation into [His^6]PHAS-I in immune complex kinases assays performed with [γ-^32P]ATP. The relative amounts of HA-raptor (▴, Δ) and HA-mLST8 (▪, □) that coimmunoprecipitated with AU1-mTOR were determined after immunoblotting with anti-HA antibodies. The results (mean values±S.E. from 3 experiments) are expressed as percentages of the mTOR activity (FIG. 12A) or coimmunoprecipitating proteins (FIG. 12B) from samples incubated without FTS or GTS, and have been corrected for the amounts of AU1-mTOR immunoprecipitated.
To investigate further the inhibitory effects of FTS on mTOR signaling, the effect of the drug on the association of mTOR, raptor, and mLST8 was determined. AU1-mTOR and HA-tagged forms of raptor and mLST8 were overexpressed in 293T cells, which were then incubated with increasing concentrations of FTS before AU1-mTOR was immunoprecipitated with anti-AU1 antibodies. Immunoblots were prepared with anti-HA antibodies to assess the relative amounts of HA-raptor and HA-mLST8 that coimmunoprecipitated with AU 1-mTOR (FIG. 11A).
Results obtained with overexpressed proteins are not necessarily representative of responses of endogenous proteins. Therefore, experiments were conducted to investigate the effect FTS on the endogenous TORC1 in nontransfected cells. […]

mTOR = target: T2, mTOR (Rattus norvegicus, UniProt P42346); experiment: Immune complex assay of mTOR activity after incubating 293T cells with compound; assay type: cell-based; settings: for mTOR activity: 293T cells incubated with increasing concentrations
T2 construct: expressed in transfected cells; host or cells: 293T
Description: as §1
FIG. 12A presents results of immune complex kinases assays with AU1-mTOR from extracts of 293T cells that had been incubated with increasing concentrations of FTS.
Immune complex assay of mTOR activity—AU1-mTOR was immunoprecipitated by using anti-AU1 antibody bound to protein G-agarose beads as described previously (McMahon, et al., (2002) Mol. Cell. Biol. 22, 7428-7438). Endogenous mTOR was immunoprecipitated in the same manner, except that mTAb1 was used instead of anti-AU1 antibody. To measure kinase activity, exhaustively washed immune complexes were suspended in 20 μl of Buffer A (50 mM NaCl, 0.1 mM EGTA, 1 mM dithiothreitol (DTT), […], 10 mM Na-HEPES, and 50 mM β-glycerophosphate, pH 7.4.). The kinase reactions were initiated by adding 20 μl of Buffer A supplemented with 2 mM [γ-^32P]ATP, 20 mM MnCl2 and 40 μg/ml of [His^6]PHAS-I. In experiments in which the effects of wortmannin were investigated, DTT was omitted from the reactions, and [His^6]PHAS-I that had been reduced and alkylated with N-ethylmaleimide was used as substrate. Reactions were terminated after 10 min at 30° by adding SDS sample buffer. Samples were subjected to SDS-PAGE and the relative amounts of ^32P incorporated into [His^6]PHAS-I were determined.

Row | Structure (SMILES) | amount of HA-raptor that coimmunoprecipitated with AU1-mTOR (mTOR-raptor complex) | IC50 (mTOR; 293T cells incubated 1 h, read-out: half maximal effect on inhibition of AU1-mTOR activity) | mTOR activity (mTOR)
1 | CC(C)=CCC/C(C)=C/CC/C(C)=C/CSc1ccccc1C(=O)O [FTS, farnesylthiosalicylic acid] | progressive decrease | 20 to 30 µM | stable decrease in mTOR activity
2 | CC(C)=CCC/C(C)=C/CSc1ccccc1C(=O)O [GTS, S-geranylthiosalicylic acid, reference compound] | relatively little effect |  | slightly decreased
